Assay results reported in patent US20250345190A1, “DRUG ELUTING STENT” (SINO MEDICAL SCIENCES TECHNOLOGY INC., priority 2020, published 2025).
Like-named read-outs stand apart in the source and are kept apart here.

Tests used:
[1] = Porcine-PK study of BuMA Supreme stent (blood, myocardium, coronary artery tissue); assay type: in vivo, Yucatan Miniature Swine; settings: for concentration at 60 days: Yucatan miniature swine, pig, coronary artery, stented segment, other: drug-eluting stent implanted in coronary arteries
[2] = as above; assay type: in vivo, Yucatan Miniature Swine
Protocol: Release of drug from the stent and local, regional, and systemic delivery of sirolimus/rapamycin was quantified by measuring the drug content in stented coronary artery segments. Drug remaining on the stent and found in tissue was measured at 1, 3, 7, 14, 21, 28, […], 90, and 150 day time points. Stents were implanted into Yucatan Miniature Swine pigs. The porcine and human arteries have correlatively similar anatomy and the porcine model is recommended for use in preclinical studies by the FDA, EMEA and Schwartz et al. Thirty-one Yucatan mini-swine were implanted in two of three coronary arteries: the left circumflex artery [LCx], left anterior descending artery [LAD] and right coronary artery [RCA] of each animal, when possible.
Pharmacokinetic analysis was performed for both Rabbit-PK (2014-002) and Porcine-PK (1792-318G) studies, using whole blood, target tissue, and non-target tissue concentration versus time data, using Phoenix WinNonlin (version 8.1) non-compartment analysis function (linear trapezoidal rule for AUC calculations). Nominal dose values and sampling times were used for calculations. Any concentration reported as BLQ (LLOQ<0.100 ng/mL) was set equal to zero. Time points were manually evaluated for the determination of lambda z (R2>0.75), the elimination rate constant, upon which half-life (t1/2) was based.
For the rabbit and porcine study, pharmacokinetic analyses included Cmax, Tmax, Tlast, AUC0-24, AUClast, t1/2, and MRTlast and is presented in Table 2. Below.

Question: Which concentration at 60 days ([1]; by 60 days, read-out: concentration of the drug in the artery (stented area)) does the source give for `CO[C@H]1C[C@@H]2CC[C@@H](C)[C@@](O)(O2)C(=O)C(=O)N2CCCC[C@H]2C(=O)O[C@H]([C@H](C)C[C@@H]2CC[C@@H](O)[C@H](OC)C2)CC(=O)[C@H](C)/C=C(\C)[C@@H](O)[C@@H](OC)C(=O)[C@H](C)C[C@H](C)/C=C/C=C/C=C/1C` [Rapamycin, Sirolimus (rapamycin)] here?
Answer: 920 ± 200 ng/g

Question: What about the concentration at 60 days ([1]; study day 60, read-out: Arterial drug concentration) of the same compound?
Answer: 922 ± 203 ng/g

Question: And the “samples with measurable drug levels in the artery” value ([1]; at 154 and 202 days)?
Answer: five of the twelve

Question: And the concentration at 1 days ([2]; Yucatan miniature swine, pig, coronary artery, stented segment, other: drug-eluting stent implanted in coronary arteries, study day 1, BuMA Supreme stent, porcine, read-out: Arterial drug concentration)?
Answer: 1630 ± 239 ng/g

Question: What about the concentration at 3 days ([2]; Yucatan miniature swine, pig, coronary artery, stented segment, other: drug-eluting stent implanted in coronary arteries, study day 3, read-out: Arterial drug concentration) of the same compound?
Answer: 2270 ± 735 ng/g

Question: What about the concentration at 7 days ([2]; Yucatan miniature swine, pig, coronary artery, stented segment, other: drug-eluting stent implanted in coronary arteries, study day 7, read-out: Arterial drug concentration) of the same compound?
Answer: 2580 ± 1430 ng/g

Question: And the concentration at 14 days ([2]; Yucatan miniature swine, pig, coronary artery, stented segment, other: drug-eluting stent implanted in coronary arteries, study day 14, read-out: Arterial drug concentration)?
Answer: 3700 ± 1710 ng/g

Question: And the concentration at 21 days ([2]; Yucatan miniature swine, pig, coronary artery, stented segment, other: drug-eluting stent implanted in coronary arteries, study day 21, read-out: Arterial drug concentration)?
Answer: 9850 ± 4720 ng/g

Question: And the concentration at 28 days ([2]; Yucatan miniature swine, pig, coronary artery, stented segment, other: drug-eluting stent implanted in coronary arteries, study day 28, read-out: Arterial drug concentration)?
Answer: 6780 ± 4140 ng/g

Question: What about the concentration at 90 days ([2]; Yucatan miniature swine, pig, coronary artery, stented segment, other: drug-eluting stent implanted in coronary arteries, study day 90, read-out: Arterial drug concentration) of the same compound?
Answer: 451 ± 188 ng/g

Question: And the concentration at 150 days ([2]; Yucatan miniature swine, pig, coronary artery, stented segment, other: drug-eluting stent implanted in coronary arteries, study day 150, read-out: Arterial drug concentration)?
Answer: 109 ± 12.1 ng/g

Question: And the “time at which maximum concentration of the drug in the artery occurred” value ([2]; after implantation, stented area)?
Answer: 21 days

Question: And the “maximum concentration of the drug in the artery (stented area)” value ([2]; average, 21 days after implantation, porcine coronary artery, BuMA Supreme stent)?
Answer: 9.85±4.72 μg/gm

Question: What about the “drug concentration in artery segments proximal and distal to the stented segment, relative to the stented segment value” ([2]; in vivo) of the same compound?
Answer: 3-11%
